Biological target: human APJ receptor (Homo sapiens (Human), UniProt P35414)
Test: [35S]GTPγS binding assay on membranes from CHO cells stably expressing human APJ receptor
Format: biochemical
Conditions: read-out: Activity hAPJ SPA EC50 IP
Experimental: [^35S]GTPγS Binding The human APJ receptor was cloned by polymerase chain reaction and the gene encoding the receptor was subcloned in pFLAG-CMV™-3 expression vector (Sigma, Saint Louis, Mo. USA) in-house at Amgen. A GTPγS binding assay was performed on membranes prepared from CHO cells stably expressing human APJ receptor. The optimum experimental conditions for the concentrations of GDP, MgCl2, and NaCl in the assay buffer were initially determined. […] Incubation was at RT for 90 min and the microplate was read using a ViewLux™ ultra HTS Microplate Imager (PerkinElmer, Inc.). All the results presented are means of several independent experiments and analyzed by non-linear regression methods using the commercially available program Prism (GraphPad, San Diego, Calif.) providing the EC50 values detailed in Table 13.

Sequence of human APJ receptor (P35414 whole entry): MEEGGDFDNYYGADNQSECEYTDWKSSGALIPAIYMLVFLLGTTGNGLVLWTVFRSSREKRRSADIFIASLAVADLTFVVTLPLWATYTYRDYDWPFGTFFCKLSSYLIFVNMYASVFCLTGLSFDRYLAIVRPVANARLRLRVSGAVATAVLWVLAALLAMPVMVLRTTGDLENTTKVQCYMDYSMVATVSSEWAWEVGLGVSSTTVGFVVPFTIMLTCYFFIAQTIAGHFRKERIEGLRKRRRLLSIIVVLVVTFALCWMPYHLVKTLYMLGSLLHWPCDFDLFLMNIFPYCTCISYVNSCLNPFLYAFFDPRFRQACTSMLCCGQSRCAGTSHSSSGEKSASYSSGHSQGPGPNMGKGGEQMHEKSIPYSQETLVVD

SMILES | EC50
COC[C@@H]1COc2ccc(OC)nc2-c2nnc(NS(=O)(=O)[C@@H](C)[C@H](C)c3ncc(C)cn3)n21 (mixture of isomers) [Example 10.0, (2S,3R)-N-((5R)-10-methoxy-5-(methoxymethyl)-5,6-dihydropyrido[2,3-f][1,2,4]triazolo[4,3-d][1,4]oxazepin-3-yl)-3-(5-methyl-2-pyrimidinyl)-2-butanesulfonamide and (2S,3R)-N-((5S)-10-methoxy-5-(methoxymethyl)-5,6-dihydropyrido[2,3-f][1,2,4]triazolo[4,3-d][1,4]oxazepin-3-yl)-3-(5-methyl-2-pyrimidinyl)-2-butanesulfonamide] | 0.79 µM
COC[C@@H]1COc2ccc(OC)nc2-c2nnc(NS(=O)(=O)[C@@H](C)[C@H](C)c3ncc(OC)cn3)n21 (single isomer, unassigned) [Example 7.0, (2S,3R)-N-((5R)-10-methoxy-5-(methoxymethyl)-5,6-dihydropyrido[2,3-f][1,2,4]triazolo[4,3-d][1,4]oxazepin-3-yl)-3-(5-methoxy-2-pyrimidinyl)-2-butanesulfonamide or (2S,3R)-N-((5S)-10-methoxy-5-(methoxymethyl)-5,6-dihydropyrido[2,3-f][1,2,4]traizolo[4,3-d][1,4]oxazepin-3-yl)-3-(5-methoxy-2-pyrimidinyl)-2-butanesulfonamide] | 0.25 µM
Cc1cnc([C@H](OC(C)C)[C@H](C)S(=O)(=O)Nc2nnc3n2-c2c(F)cccc2/C=C\C[C@@H]3C)nc1 (single isomer, unassigned) [Example 50.0] | 0.012 µM
COc1ccc2c(c1)-c1nnc(NS(=O)(=O)[C@@H](C)[C@@H](OC(C)C)c3ncc(C)cn3)n1C(CO)CO2 (single isomer, unassigned) [Example 151.0, (1S,2S)-N-((5R)-5-(hydroxymethyl)-10-methoxy-5,6-dihydro[1,2,4]triazolo[4,3-d][1,4]benzoxazepin-3-yl)-1-(5-methyl-2-pyrimidinyl)-1-(2-propanyloxy)-2-propanesulfonamide or (1S,2S)-N-((5S)-5-(hydroxymethyl)-10-methoxy-5,6-dihydro[1,2,4]triazolo[4,3-d][1,4]benzoxazepin-3-yl)-1-(5-methyl-2-pyrimidinyl)-1-(2-propanyloxy)-2-propanesulfonamide] | 1.27 µM
COCC1COc2ccc(OC)cc2-c2nnc(NS(=O)(=O)[C@@H](C)[C@@H](OC(C)C)c3ncc(C)cn3)n21 (single isomer, unassigned) [Example 153.0, (1S,2S)-N-((5R)-10-methoxy-5-(methoxymethyl)-5,6-dihydro[1,2,4]triazolo[4,3-d][1,4]benzoxazepin-3-yl)-1-(5-methyl-2-pyrimidinyl)-1-(2-propanyloxy)-2-propanesulfonamide or (1S,2S)-N-((5S)-10-methoxy-5-(methoxymethyl)-5,6-dihydro[1,2,4]triazolo[4,3-d][1,4]benzoxazepin-3-yl)-1-(5-methyl-2-pyrimidinyl)-1-(2-propanyloxy)-2-propanesulfonamide] | 0.25 µM
Cc1cnc([C@H](OC(C)C)[C@H](C)S(=O)(=O)Nc2nnc3n2[C@H](CO)COc2cccnc2-3)nc1 (mixture of isomers) [Example 58.0, (1S,2S)-N-((R)-5-(hydroxymethyl)-5,6-dihydropyrido[2,3-f][1,2,4]triazolo[4,3-d][1,4]oxazepin-3-yl)-1-isopropoxy-1-(5-methylpyrimidin-2-yl)propane-2-sulfonamide and (1S,2S)-N-((S)-5-(hydroxymethyl)-5,6-dihydropyrido[2,3-f][1,2,4]triazolo[4,3-d][1,4]oxazepin-3-yl)-1-isopropoxy-1-(5-methylpyrimidin-2-yl)propane-2-sulfonamide] | 2.1 µM
Cc1cnc([C@H](OC(C)C)[C@H](C)S(=O)(=O)Nc2nnc3n2[C@H](COC(C)C)COc2ccc(F)cc2-3)nc1 (mixture of isomers) [Example 62.0, (1S,2S)-N-((R)-10-fluoro-5-(isopropoxymethyl)-5,6-dihydrobenzo[f][1,2,4]triazolo[4,3-d][1,4]oxazepin-3-yl)-1-isopropoxy-1-(5-methylpyrimidin-2-yl)propane-2-sulfonamide and (1S,2S)-N-((S)-10-fluoro-5-(isopropoxymethyl)-5,6-dihydrobenzo[f][1,2,4]triazolo[4,3-d][1,4]oxazepin-3-yl)-1-isopropoxy-1-(5-methylpyrimidin-2-yl)propane-2-sulfonamide] | 0.021 µM
COC[C@@H]1COc2ccc(OC)nc2-c2nnc(NS(=O)(=O)[C@@H](C)[C@@H](OC(C)C)c3ncc(C)cn3)n21 (mixture of isomers) [Example 11.0, (1S,2S)-N-((5R)-10-methoxy-5-(methoxymethyl)-5,6-dihydropyrido[2,3-f][1,2,4]triazolo[4,3-d][1,4]oxazepin-3-yl)-1-(5-methyl-2-pyrimidinyl)-1-(2-propanyloxy)-2-propanesulfonamide and (1S,2S)-N-((5S)-10-methoxy-5-(methoxymethyl)-5,6-dihydropyrido[2,3-f][1,2,4]triazolo[4,3-d][1,4]oxazepin-3-yl)-1-(5-methyl-2-pyrimidinyl)-1-(2-propanyloxy)-2-propanesulfonamide] | 0.041 µM
CO[C@H](c1ncc(C)cn1)[C@H](C)S(=O)(=O)Nc1nnc2n1[C@H](COC(C)C)COc1ncccc1-2 (mixture of isomers) [Example 56.0, (1R,2S)-N-((R)-5-(isopropoxymethyl)-5,6-dihydropyrido[3,2-f][1,2,4]triazolo[4,3-d][1,4]oxazepin-3-yl)-1-methoxy-1-(5-methylpyrimidin-2-yl)propane-2-sulfonamide and (1R,2S)-N-((S)-5-(isopropoxymethyl)-5,6-dihydropyrido[3,2-f][1,2,4]triazolo[4,3-d][1,4]oxazepin-3-yl)-1-methoxy-1-(5-methylpyrimidin-2-yl)propane-2-sulfonamide] | 2.2 µM
COC[C@@H]1COc2c(OC)cccc2-c2nnc(NS(=O)(=O)[C@@H](C)[C@@H](OC(C)C)c3ncc(C)cn3)n21 (mixture of isomers) [Example 33.0, (1S,2S)-N-((5R)-8-methoxy-5-(methoxymethyl)-5,6-dihydro[1,2,4]triazolo[4,3-d][1,4]benzoxazepin-3-yl)-1-(5-methyl-2-pyrimidinyl)-1-(2-propanyloxy)-2-propanesulfonamide and (1S,2S)-N-((5S)-8-methoxy-5-(methoxymethyl)-5,6-dihydro[1,2,4]triazolo [4,3-d][1,4]benzoxazepin-3-yl)-1-(5-methyl-2-pyrimidinyl)-1-(2-propanyloxy)-2-propanesulfonamide] | 0.015 µM
Cc1cnc([C@H](OC(C)C)[C@H](C)S(=O)(=O)Nc2nnc3n2-c2c(F)cccc2/C=C\C[C@@H]3C)nc1 (single isomer, unassigned) [Example 51.0] | 0.0086 µM
COC[C@@H]1COc2c(OC)cccc2-c2nnc(NS(=O)(=O)[C@@H](C)[C@H](C)c3ncc(OC)cn3)n21 (single isomer, unassigned) [Example 9.0, (2S,3R)-N-((5R)-8-methoxy-5-(methoxymethyl)-5,6-dihydro[1,2,4]triazolo[4,3-d][1,4]benzoxazepin-3-yl)-3-(5-methoxy-2-pyrimidinyl)-2-butanesulfonamide or (2S,3R)-N-((5S)-8-methoxy-5-(methoxymethyl)-5,6-dihydro[1,2,4]triazolo[4,3-d][1,4]benzoxazepin-3-yl)-3-(5-methoxy-2-pyrimidinyl)-2-butanesulfonamide] | 1.6 µM
